The text below walks through data of patent US20040121460A1, “Differentiation of stem cells to pancreatic endocrine cells” (priority 2003, published 2004).

“Also recorded” adds a separate entry of the source.

In assay [1] the test system is ES cell cultures. The experiment in a line: LIF treatment of ES cell cultures at stage 2 (EB formation), immunostaining for EN-1, PDX-1, TuJ1, GFAP. Format: cell-based. The method, then:
FIG. 5 is a set of panels showing the neural and pancreatic differentiation of ES cells. FIG. 1A is a set of digital images showing the cells during the procedure for induction of midbrain dopaminergic neurons from ES cells as previous described (see WO 01/83715, herein incorporated by reference). Briefly, the ES cells were taken through 5 steps or stages. In stage 1 undifferentiated ES cells were cultured for 5 days in the presence of 15% fetal calf serum (FCS) on gelatin coated tissue culture dishes in the presence of LIF (1,400 U/ml). In stage 2 embryoid bodies (Ebs) were generated in the presence of FCS for 4 days in the presence or absence of LIF (1,000 U/ml.). In stage 3, the EBs were plated into ITSFn medium (Okabe et al., Mech. Dev. 59: 89-102, 1996) where over 10 days Nestin+ cells migrated from the cell aggregates. In stage 4 these Nestin+ cells were resuspended and expanded for 4 days in N2 medium containing bFGF, sonic hedgehog (Shh) and fibroblast growth factor-8 (FGF8). In stage 5 the medium was changed into N2 medium without bFGF, Shh or FGF8. These cells differentiated efficiently into neurons and astrocytes over a two week period. Embryoid bodies were generated in the presence (LIF+) or absence (LIF−) of LIF (1000 U/ml) and differentiated. Double-immunostaining for TuJ1/GFAP (upper panels, day 8 in stage 5) and PDX-1/En-1 (lower panels, day 3 in stage 4). LIF treatment in stage 2 (EB formation) increases the neuronal (TuJ1+cells, light grey) and decreases the astrocytic (GFAP+, dark grey) population. […] FIG. 5C is a bar graph showing that the yield of En-1+ and PDX-1+ cells is expressed as a percentage of total cells at stage 4.
The methods disclosed herein include five stages: (1) expansion of ES cells (2) generation of EB (3) selection for CNS precursor cells (4) expansion of pancreatic (versus central nervous system (CNS)) precursor cells, and (5) differentiation of pancreatic endocrine cells (versus differentiation of neuronal cells). Expansion of ES cells and generation of EB was performed as disclosed herein. EB were cultured in DMEM/15% serum (ES medium) with LIF (1000 units (U)/ml) for 4 days with changing medium every 2 day. After 4 days, EBs were transferred to a tissue culture dish cultured in ITS medium containing fibronectin for 10-12 days. EBs which were kept in absence of LIF in stage II were phenotypically different than EB cultured in the presence of LIF in stage II. In stage 1V, ES-derived CNS precursor were cultured in N2 medium in the presence of bFGF (20 ng/ml) and Shh (500 ng/ml) and FGF8 (100 ng/ml) for 4 days and after withdrawal of bFGF/SHH/FGF8, differentiated them for 10-12 day in N2 medium with ascorbic acid. Specifically, EB cultured in the absence of LIF were spread out in stage III. EBs which were treated with LIF maintained a round shape and CNS precursor cells migrated from attaching point of EB in dishes. Therefore, a selection for CNS precursor was accomplished by culturing in the […] of LIF.

Assay [2] relates to ES cell-derived insulin-secreting islet clusters. Briefly: Insulin secretion from ES cell-derived islet clusters, insulin ELISA. Format: cell-based, murine. Particulars: for insulin secretion in response to agonists (secretagogues): in the presence of low concentration (5 mM) of glucose. The method, then:
A series of experiments were conducted to measure the kinetics and pharmacology of glucose-dependent insulin release. Insulin secretion was measured in Krebs-Ringer-bicarbonate buffer containing 120 mM NaCl, 5 mM KCl, 2.5 mM CaCl2, 1.1 mM MgCl2, 25 mM NaHCO3 and 0.1% bovine serum albumin at 37° C. Inhibitors of insulin secretion (nifedipine and diazoxide) were added to buffer during preincubation (30 min) and throughout the incubation period. For determination of total cellular insulin content, insulin was extracted from cells with acid ethanol (10% glacial acetic acid in absolute ethanol) overnight at 4° C., followed by cell sonication. Total cellular and secreted insulin was assayed using insulin ELISA kit (ALPCO, Windham, N.H.). Protein concentrations were determined using DC protein assay system (Bio-Rad, Hercules, Calif.).
To determine if the islet clusters utilize physiological glucose-mediated signaling pathways, the effect of several well-characterized agonists and antagonists of insulin secretion were examined. The mechanism by which glucose stimulates insulin secretion in vivo is complex. As outlined in FIG. 3B, transport of glucose into the cell, and its metabolism results in ATP production, an event which, in turn, leads to inhibition of ATP-dependent K^+ channels, cell membrane depolarization, opening of the voltage-dependent Ca^++ channels, and influx of extracellular Ca^++ into the cell. Additionally, intracellular Ca^++ can be elevated by release of Ca^++ from intracellular stores through other mechanisms. Elevation of free intracellular Ca^++ is coupled to multiple phosphorylation events modulated by protein kinase C (PKC) and protein kinase A (PKA) cascades, which ultimately lead to release of insulin from the cell (McClenaghan et al., J Mol. Med., 77:235, 1999).
A general note: ELISA stands for enzyme-linked immunosorbent assay.

Where [3] appears, read: at stage 4, LIF at stage 2 (EB formation).

On to “LIF: growth factor that prevents differentiation of ES cells; glycosylated 58 kDa protein of 179 amino acids”, for which, in assay [1] (setting [3]), the “PDX-1 positive cells / pancreatic precursor cells” value is given as “negatively regulates; also recorded: Only few” and the “expression of EN-1 / midbrain precursor cells (En-1+ cells)” value is listed as “efficiently enhances; also recorded: increases”. The “EN-1 positive cells, share of total ES cell-derived cell population” value in assay [1] (at stage 4, LIF present at stage 2) is reported as “up to 80%”. Further, the “yield of neurons / neuronal (TuJ1+) population” value in assay [1] (at stage 5, LIF at stage 2 (EB formation)) was “increased”. Moreover, in assay [1] (day 8 in stage 5, LIF at stage 2 (EB formation)), the “astrocytic (GFAP+) population” value was “decreases”. As for `CCCCNC(=O)NS(=O)(=O)c1ccc(C)cc1` [tolbutamide], the “insulin secretion in response to agonists (secretagogues)” value in assay [2] is reported as “stimulated insulin secretion”. On the same count and under the same terms, next, `CC(C)Cn1c(=O)n(C)c(=O)c2[nH]cnc21` [IBMX, 3-isobutil-1-methylxanthine]: “stimulated insulin secretion”. With `CC1=NS(=O)(=O)c2cc(Cl)ccc2N1` [diazoxide], the “insulin secretion in the presence of antagonists (inhibitors)” value in assay [2] (in the presence of high glucose concentrations (20 mM)) is “inhibited insulin secretion”. `C[N+](C)(C)CCOC(N)=O` [carbachol]: the “insulin secretion in response to agonists (secretagogues)” value in assay [2] is “stimulated insulin secretion”.
